Paper PMC12281477, “Live-Cell NanoBRET Assay to Measure AKT Inhibitor Binding to Conformational States of AKT” (ACS Chemical Biology, 2025)

How the values were obtained:
AKT3-NL [1] = molecular target: T1, AKT3-NL (Homo sapiens, UniProt Q9Y243); assay: Bioluminescent imaging of AKT3-NL localization in HEK293T cells; assay type: cell-based; parameters: full-length versions of AKT1, AKT2, and AKT3, were separately subcloned into pNLF1-N or pNLF1-C vectors; expressed in transfected cells; host or cells: HEK293T; settings: 2 h treatment, compared to DMSO
T1 sequence (Q9Y243 whole entry): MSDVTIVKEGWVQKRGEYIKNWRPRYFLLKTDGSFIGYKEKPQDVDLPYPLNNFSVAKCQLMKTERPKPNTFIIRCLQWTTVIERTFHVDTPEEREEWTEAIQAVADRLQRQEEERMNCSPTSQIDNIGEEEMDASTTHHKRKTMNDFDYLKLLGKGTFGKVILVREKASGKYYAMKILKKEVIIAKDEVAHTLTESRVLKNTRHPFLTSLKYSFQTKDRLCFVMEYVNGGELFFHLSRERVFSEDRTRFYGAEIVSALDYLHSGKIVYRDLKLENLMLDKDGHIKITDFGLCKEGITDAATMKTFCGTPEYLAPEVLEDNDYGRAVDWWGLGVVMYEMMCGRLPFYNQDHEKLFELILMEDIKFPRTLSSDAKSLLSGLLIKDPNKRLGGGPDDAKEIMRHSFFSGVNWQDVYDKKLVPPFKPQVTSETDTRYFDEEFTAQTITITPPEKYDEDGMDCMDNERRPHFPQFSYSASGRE
Description: (§1) We also performed bioluminescent imaging on AKT1-NL, AKT2-NL, and AKT3-NL transfected into HEK293T cells treated individually with all AKT inhibitors for 2 h (Figure S1F). […] After incubation, 2 μL of NanoGlo substrate was added to each well and imaged using the GloMax Galaxy Bioluminescence Imager utilizing a 40× objective (Nikon CFI Plan Fluor- Material Number MRH01401) and exposure times ranging from 32 to 100 s. […] Images were processed in Fiji.

MDA-MB-231 cells = assay: Resazurin cell viability assay, MDA-MB-231; assay type: cell-based; settings: Homo sapiens, MDA-MB-231, 120 h, 5 days, ± SEM, n = 3
MDA-MB-468 cells = assay: Resazurin cell viability assay, MDA-MB-468; assay type: cell-based; settings: Homo sapiens, MDA-MB-468, 120 h, 5 days, ± SEM, n = 3
AKT1-NL [2] = molecular target: T2, AKT1-NL (Homo sapiens, UniProt P31749); assay: Bioluminescent imaging of AKT1-NL localization in HEK293T cells; assay type: cell-based; settings: 2 h treatment, compared to DMSO
T2 construct: full-length versions of AKT1, AKT2, and AKT3, were separately subcloned into pNLF1-N or pNLF1-C vectors; expressed in transfected cells; host or cells: HEK293T
T2 sequence (P31749 whole entry): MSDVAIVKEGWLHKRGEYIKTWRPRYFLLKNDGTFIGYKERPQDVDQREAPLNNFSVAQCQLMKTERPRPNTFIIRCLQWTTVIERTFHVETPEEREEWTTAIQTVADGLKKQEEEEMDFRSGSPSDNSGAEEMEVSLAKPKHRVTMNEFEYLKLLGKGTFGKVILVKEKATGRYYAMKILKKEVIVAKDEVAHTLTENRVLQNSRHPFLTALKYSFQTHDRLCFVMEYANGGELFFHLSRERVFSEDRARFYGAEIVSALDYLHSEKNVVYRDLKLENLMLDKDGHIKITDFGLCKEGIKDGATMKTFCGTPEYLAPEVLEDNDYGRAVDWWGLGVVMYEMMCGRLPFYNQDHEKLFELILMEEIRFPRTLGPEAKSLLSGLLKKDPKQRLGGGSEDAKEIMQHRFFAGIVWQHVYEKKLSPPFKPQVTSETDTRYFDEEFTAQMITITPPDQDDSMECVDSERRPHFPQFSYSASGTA
Description: as §1

Myr-AKT1-NL = molecular target: T3, Myr-AKT1-NL (Homo sapiens, UniProt P31749); assay: NanoBRET target engagement assay, Myr-AKT1-NL; assay type: binding
T3 construct: host or cells: HEK293T
T3 sequence (P31749 whole entry): as above
Excerpt: It was puzzling to understand why ATP-competitive inhibitors bound more tightly to some pathological mutants. […] To achieve an active AKT population characterized by increased phosphorylation and membrane association, we created N-terminally myristoylated AKT1–3-NL constructs (Figure A). AKT myristoylation is commonly used to keep AKT membrane-associated and available for phosphorylation by PDK1 and mTORC2. , We decided to use myristoylation instead of treatment with a PI3K-AKT stimulating hormone such as IGF1 because of transient time-dependent effects on phosphorylation that complicates the reproducibility of our NanoBRET assay. , Bioluminescent imaging of Myr-AKT1-NL, Myr-AKT2-NL, and Myr-AKT3-NL constructs confirmed that each isoform was associated at the cell membrane (Figure S4A).
Statistics were performed in Origin 2023.

AKT1-NL [3] = molecular target: T2, AKT1-NL; assay: Live-cell steady-state NanoBRET target engagement assay, AKT1-NL; assay type: binding
Description: (§2) In this live-cell assay, bioluminescence resonance energy transfer (BRET) produced by the interaction of a transfected NanoLuciferase (NL)-tagged protein of interest and a protein-bound Bodipy-containing tracer molecule is dose-dependently competed out with a drug.
(§3) This solution was aliquoted into white adherent 96-well plates at a volume of 100 μL/well and incubated for 24 h at 37 °C and 5% CO2. […] Following all inhibitor and tracer additions, cells were incubated at 37 °C and 5% CO2 for 2 h. 50 μL of a 3× solution of Opti-MEM containing a NanoGlo substrate and NanoLuciferase inhibitor provided in the NanoBRET kit were added to each well.
(§4) Calculated K i values were calculated using the following formula Ki=IC50,tracer/(1+[tracer]/EC50,tracer)

AKT3-NL [4] = molecular target: T1, AKT3-NL; assay: Live-cell steady-state NanoBRET target engagement assay, AKT3-NL
Description: as §2, §3, §4

PDK1-NL = molecular target: T4, PDK1-NL (Homo sapiens, UniProt O15530); assay: NanoBRET competition assay using PDK1-NL; assay type: binding; settings: ± SEM, n = 3 biological replicates; read-out: PDK1-NL calculated Ki
T4 sequence (O15530 1-556): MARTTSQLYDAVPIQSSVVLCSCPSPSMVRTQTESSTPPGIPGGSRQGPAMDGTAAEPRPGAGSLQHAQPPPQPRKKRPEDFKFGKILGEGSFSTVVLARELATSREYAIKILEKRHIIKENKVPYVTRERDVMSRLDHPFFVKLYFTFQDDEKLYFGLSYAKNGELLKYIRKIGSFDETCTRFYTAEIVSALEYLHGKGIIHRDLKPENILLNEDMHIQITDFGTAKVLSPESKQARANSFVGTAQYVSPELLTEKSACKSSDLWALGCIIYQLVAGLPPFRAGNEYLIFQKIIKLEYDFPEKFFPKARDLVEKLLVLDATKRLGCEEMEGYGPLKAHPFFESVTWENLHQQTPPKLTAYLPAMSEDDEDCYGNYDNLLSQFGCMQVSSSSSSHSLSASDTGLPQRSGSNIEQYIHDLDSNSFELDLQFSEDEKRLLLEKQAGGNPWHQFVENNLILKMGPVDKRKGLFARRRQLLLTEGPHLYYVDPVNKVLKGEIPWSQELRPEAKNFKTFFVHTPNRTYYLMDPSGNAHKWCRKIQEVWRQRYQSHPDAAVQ
Description: as §3, §4

AKT3-E17K-NL = molecular target: T5, AKT3-E17K-NL (Homo sapiens, UniProt Q9Y243, E17K); assay: NanoBRET competition assay, AKT3-E17K-NL; assay type: binding
T5 construct: full-length versions of AKT1, AKT2, and AKT3, were separately subcloned into pNLF1-N or pNLF1-C vectors; expressed in transfected cells
T5 sequence (Q9Y243 whole entry E17K): as the sequence (Q9Y243 whole entry) above, with E17K counted along it
Description: We next quantified the binding of ATP-competitive and allosteric inhibitors to these pathogenic mutants.
For coexpression experiments with Myr-AKT1-NL and PDK1, a DNA ratio of 9:0.5:0.5, μg/mL carrier DNA/Myr-AKT1-NL: PDK1 was used. This solution was aliquoted into white adherent 96-well plates at a volume of 100 μL/well and incubated for 24 h at 37 °C and 5% CO2. […] Following all inhibitor and tracer additions, cells were incubated at 37 °C and 5% CO2 for 2 h. 50 μL of a 3× solution of Opti-MEM containing a NanoGlo substrate and NanoLuciferase inhibitor provided in the NanoBRET kit were added to each well.
as §4

AKT2-NL = molecular target: T6, AKT2-NL (Homo sapiens, UniProt P31751); assay: Bioluminescent imaging of AKT2-NL localization in HEK293T cells; assay type: cell-based; settings: 2 h treatment, compared to DMSO
T6 construct: full-length versions of AKT1, AKT2, and AKT3, were separately subcloned into pNLF1-N or pNLF1-C vectors; expressed in transfected cells; host or cells: HEK293T
T6 sequence (P31751 whole entry): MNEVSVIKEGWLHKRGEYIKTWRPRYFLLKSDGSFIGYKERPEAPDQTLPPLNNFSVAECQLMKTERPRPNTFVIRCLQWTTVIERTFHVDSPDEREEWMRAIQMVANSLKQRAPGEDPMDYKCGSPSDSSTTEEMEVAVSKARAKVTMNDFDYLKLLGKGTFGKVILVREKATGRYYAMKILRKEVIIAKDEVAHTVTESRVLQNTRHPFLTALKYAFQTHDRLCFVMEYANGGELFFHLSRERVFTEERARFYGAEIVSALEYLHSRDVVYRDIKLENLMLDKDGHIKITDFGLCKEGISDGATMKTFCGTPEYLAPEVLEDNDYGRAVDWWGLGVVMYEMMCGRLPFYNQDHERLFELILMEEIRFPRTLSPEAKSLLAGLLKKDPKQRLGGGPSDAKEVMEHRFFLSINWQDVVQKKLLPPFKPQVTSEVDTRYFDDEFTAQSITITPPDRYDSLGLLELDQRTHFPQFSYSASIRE
Description: as §1

[5] = vs absence of BX-795, 0.2% DMSO

Q: Which results are given for `Cc1n[nH]c2ccc(-c3cncc(OCC(N)Cc4c[nH]c5ccccc45)c3)cc12` (stereo not shown) [A-443654]?
A: AKT3-NL localization change (AKT3-NL [1]): induced movement of all isoforms to the cell membrane and nucleus; IC50 (MDA-MB-231 cells): 330 ± 10 nM; IC50 (MDA-MB-468 cells): 20 ± 1 nM; AKT1-NL localization change (AKT1-NL [2]): induced movement of all isoforms to the cell membrane and nucleus; Binding to Myr-AKT1-NL in the presence of 1 μM BX-795 (Myr-AKT1-NL; [5]): bound more weakly; Ki (AKT1-NL [3]): 32.7 ± 14.1 nM; Binding to AKT1-NL in the presence of 1 μM BX-795 (AKT1-NL [3]; [5]): unaffected; Ki (AKT3-NL [4]): 16.6 ± 5.5 nM

Q: How did the Ki (PDK1-NL) turn out when `O=C(NCCCNc1nc(Nc2cccc(NC(=O)N3CCCC3)c2)ncc1I)c1cccs1` [BX-795] was run?
A: The Ki was 5.85 ± 0.42 nM.

Q: And the “Concentration at which some binding to Myr-AKT1-NL was observed” value (Myr-AKT1-NL; dose-response curve)?
A: The value was “higher than 1 μM”.

Q: What about the “Concentration at which some binding to AKT1-NL was observed” value (AKT1-NL [3]; dose-response curve) of the same compound?
A: Its value is “higher than 1 μM”.

Q: How did the AKT3-NL localization change (AKT3-NL [1]) turn out when `NC1(c2ccc(-c3nc4ccn5c(=O)[nH]nc5c4cc3-c3ccccc3)cc2)CCC1` [MK-2206] was run?
A: Its AKT3-NL localization change is “did not induce AKT localization changes”.

Q: What about the “Binding to AKT3-E17K-NL” value (AKT3-E17K-NL) of the same compound?
A: Its value is “did not bind”.

Q: And the AKT1-NL localization change (AKT1-NL [2])?
A: The AKT1-NL localization change was “did not induce AKT localization changes”.

Q: And the AKT2-NL localization change (AKT2-NL)?
A: Its AKT2-NL localization change is “did not induce AKT localization changes”.

Q: Which results are given for `O=c1[nH]c2ccccc2n1C1CCN(Cc2ccc(-c3nc4cc5[nH]cnc5cc4nc3-c3ccccc3)cc2)CC1` [inhibitor VIII]?
A: AKT3-NL localization change (AKT3-NL [1]): did not induce AKT localization changes; AKT1-NL localization change (AKT1-NL [2]): did not induce AKT localization changes; AKT2-NL localization change (AKT2-NL): did not induce AKT localization changes

Q: With `CC(C)NC[C@@H](C(=O)N1CCN(c2ncnc3c2[C@H](C)C[C@H]3O)CC1)c1ccc(Cl)cc1` [ipatasertib] as the compound, how does the AKT1-NL localization change (AKT1-NL [2]) read?
A: The AKT1-NL localization change was “induced the movement of some AKT to the cell membrane”.
